Experimental findings from patent publication US10045999B2, “Nutritional composition for the stimulation of muscle protein synthesis” (N. V. Nutricia, priority 2010, dated 2018) are described below.

Marks after values point to notes of the source that are not given here.

For this experiment, the system named is C2C12 myotubes. As to the kind of experiment: Protein synthesis rate (FSR) in C2C12 myotubes after pretreatment with 1,25(OH)2 Vitamin D3, with or without leucine and insulin. The class given is cell-based, mouse. The following applies: for increase in muscle protein synthesis rate: C2C12 myotubes treated only with vitamin D3, with leucine alone, or with both; for change (%) in protein synthesis rate vs no pretreatment with vitamin D3: 72 h pretreatment. The procedure: An experimental in vitro study is performed to evaluate the synergistic or additional action of leucine and vitamin D on intracellular pathways regulating protein synthesis in muscle cells.
C2C12 mouse myoblasts are obtained from the American Type Culture Source Collection (no. CRL-1772). Myoblasts are cultured at 37° C. in an atmosphere of 5% CO2 in grown medium consisting of Dulbecco's modified Eagle's medium (DMEM) supplemented with 10% foetal calf serum and antibiotics. Myotube C2C12 differentiation is induced by withdrawing foetal calf serum from confluent cells and adding 10 μg/ml insulin, 5 μg/ml transferrin and 2% horse serum.
Confluent C2C12 myotubes are treated with vehicles alone or with different doses of 1,25(OH)2 D3. Subsequently, the cells are deprived of horse serum by incubation in a serum-free medium for the two remaining hours. During this deprivation period, different amounts of leucine and insulin are added to the medium before harvesting cells.
Medium with or without leucine supplementation are used to assess the synergistic or additional action of leucine and vitamin D on intracellular pathways regulating protein synthesis (Akt, mTOR) and/or on direct measure of protein synthesis.
Protein synthesis rate (FSR) in C2C12 myotubes after 72 h pretreatments with 0, 1 or 10 nm of 1,25(OH)2 Vitamin D3 is depicted in FIG. 1.
FIG. 1: Protein synthesis rate (FSR) in C2C12 myotubes after 72 h pretreatments with 0, 1 or 10 nm of 1,25(OH)2 Vitamin D3.

Consider `C=C1/C(=C\C=C2/CCC[C@]3(C)[C@@H]([C@H](C)CCCC(C)(C)O)CC[C@@H]23)C[C@@H](O)C[C@@H]1O` [Vitamin D, 1,25-dihydroxycholecalciferol], for which the “increase in muscle protein synthesis rate” value is on record as 14.3%. The “effect on muscle protein synthesis (in words)” value (C2C12 myotubes, vitamin D3 dose 1 or 10 nM) was “can stimulate muscle protein synthesis independently of leucine presence”. Besides, the “change (%) in protein synthesis rate vs no pretreatment with vitamin D3” value (from here on “change (%) … vs no pretreatment with vitamin D3”) ([Vitamin D] = 1 nM, Ins + leu, vs [Vit D] = 0 Ins + leu) is given as 9.8* %. The “change (%) … vs no pretreatment with vitamin D3” value ([Vitamin D] = 1 nM, No stim, vs [Vit D] = 0 No stim) is listed as 14.0* %. Also, under “[Vitamin D] = 10 nM, Ins + leu, vs [Vit D] = 0 Ins + leu”, the “change (%) … vs no pretreatment with vitamin D3” value is recorded as 14.3* %. Further, for the setting “[Vitamin D] = 10 nM, No stim, vs [Vit D] = 0 No stim”, the “change (%) … vs no pretreatment with vitamin D3” value is given as 14.3* %.
For `CC(C)C[C@H](N)C(=O)O` [leucine, L-leucine], the “increase in muscle protein synthesis rate” value is on record as 10.7%.
